Results taken from patent publication US9040717B2, “Pyrazole-amide compounds and pharmaceutical use thereof” (JAPAN TOBACCO INC., priority 2013, dated 2015).

Biological target: hERG (Homo sapiens (Human), UniProt Q12809)
Assay: hERG whole cell patch clamp test
Format: cell-based
Conditions: human, hERG-transfected HEK293 cells, pH 7.4; whole cell patch clamp
Description: Using human ether-a-go-go related gene (hERG)-transfected HEK293 cells (Cytomyx Limited), an influence on hERG current was examined according to the whole cell patch clamp technique. The hERG-transfected HEK293 cells were passaged using a CO2 incubator (BNA-111, TABAI ESPEC CORP.) under the set conditions of 37° C., 5% CO2, saturated humidity. Culture containers used were Collagen Type I Coated 75 cm^2 flask (4123-010, AGC TECHNO GLASS CO., Ltd.) and Collagen Type I Coated 35 mm culture dish (4000-010, AGC TECHNO GLASS CO., Ltd.). The culture medium used was E-MEM (Eagle Minimum Essential Medium (Earle's Salts, Nikken biomedical laboratory) added with 10% FCS (Fetal calf serum, BioWest, L.L.C.) and 1% MEM Non-Essential Amino Acids Solution (NEAA, Invitrogen Corporation). Geneticin for the selection of hERG gene expressing cells was added thereto to a concentration of 400 μg/mL. As the cells for the measurement, 3×10^4 hERG-transfected HEK293 cells were plated on a 35 mm culture dish 4 to 7 days before measurement of the hERG current. The culture dish produced for the measurement contained the above-mentioned culture medium without geneticin (Invitrogen Corporation).
The highest evaluation concentration of each compound was determined from the highest concentration at which precipitation was not found in the standard extracellular fluid (NaCl: 140 mmol/L, KCl: 2.5 mmol/L, MgCl2:2 mmol/L, CaCl2: 2 mmol/L, HEPES: 10 mmol/L, glucose: 10 mmol/L (adjusted to pH 7.4 with Tris-base)). As the application method, each solution to be applied was ejected from a Y-tube having a tip diameter of about 0.25 mm, which was adjacent (about 2 mm) to the cells, and applied to the cells. The ejection rate was about 0.4 mL/min.
The experiment was performed at room temperature under a phase contrast microscope. The 35 mm culture dish plated with the cells was set on a measurement apparatus, and the standard extracellular fluid was continuously applied to the cells from the Y-tube. A glass electrode for the measurement was filled with an intracellular fluid (Potassium Gluconate: 130 mmol/L, KCl: 20 mmol/L, MgCl2: 1 mmol/L, ATP-Mg: 5 mmol/L, EGTA: 3.5 mmol/L, HEPES: 10 mmol/L (adjusted to pH 7.2 with Tris-base)). A conventional whole cell patch clamp method was applied to the cells, and the maintenance electric potential was set to −80 mV. Under a fixed electric potential, the whole cell current was amplified by an amplifier for patch clamp (AXOPATCH-200B, Axon Instruments, Inc.), and the data was loaded into a computer (IMC-P642400, Intermedical Co., Ltd.) using a data acquisition analysis software (pCLAMP 9.2, Axon Instruments, Inc.).
The measurement of the hERG current was performed in the following two steps. In both cases, the hERG current was initiated by giving a command potential (maintenance electric potential −80 mV, prepulse +20 mV, 1.5 sec, test-pulse −50 mV, 1.5 sec).
Step (1): The above-mentioned command potential was given at 0.1 Hz for 2 min.
Step (2): The above-mentioned command potential was subjected to P/3 subtraction of pCLAMP 9.2 to remove leak current. This was repeated three times and an average thereof was taken as hERG current.
Subsequent to step (1), Step (2) was performed (about 3 min), and the maximum tail current obtained by applying a test-pulse to the hERG current obtained by the method of step (2) was taken as hERG current value. Hereafter, the operations of (1) and (2) were alternately repeated until completion of the experiment and the hERG current value was measured.
Stable hERG current value was recorded three times (about 10 min), and the standard extracellular fluid was instantaneously exchanged with each application fluid. The hERG current value was measured three times (about 10 min) in the same manner during perfusion of the application fluid, and the current value obtained by the 3rd measurement was taken as hERG current value after perfusion of the application fluid. […]

hERG, sequence (Q12809 whole entry): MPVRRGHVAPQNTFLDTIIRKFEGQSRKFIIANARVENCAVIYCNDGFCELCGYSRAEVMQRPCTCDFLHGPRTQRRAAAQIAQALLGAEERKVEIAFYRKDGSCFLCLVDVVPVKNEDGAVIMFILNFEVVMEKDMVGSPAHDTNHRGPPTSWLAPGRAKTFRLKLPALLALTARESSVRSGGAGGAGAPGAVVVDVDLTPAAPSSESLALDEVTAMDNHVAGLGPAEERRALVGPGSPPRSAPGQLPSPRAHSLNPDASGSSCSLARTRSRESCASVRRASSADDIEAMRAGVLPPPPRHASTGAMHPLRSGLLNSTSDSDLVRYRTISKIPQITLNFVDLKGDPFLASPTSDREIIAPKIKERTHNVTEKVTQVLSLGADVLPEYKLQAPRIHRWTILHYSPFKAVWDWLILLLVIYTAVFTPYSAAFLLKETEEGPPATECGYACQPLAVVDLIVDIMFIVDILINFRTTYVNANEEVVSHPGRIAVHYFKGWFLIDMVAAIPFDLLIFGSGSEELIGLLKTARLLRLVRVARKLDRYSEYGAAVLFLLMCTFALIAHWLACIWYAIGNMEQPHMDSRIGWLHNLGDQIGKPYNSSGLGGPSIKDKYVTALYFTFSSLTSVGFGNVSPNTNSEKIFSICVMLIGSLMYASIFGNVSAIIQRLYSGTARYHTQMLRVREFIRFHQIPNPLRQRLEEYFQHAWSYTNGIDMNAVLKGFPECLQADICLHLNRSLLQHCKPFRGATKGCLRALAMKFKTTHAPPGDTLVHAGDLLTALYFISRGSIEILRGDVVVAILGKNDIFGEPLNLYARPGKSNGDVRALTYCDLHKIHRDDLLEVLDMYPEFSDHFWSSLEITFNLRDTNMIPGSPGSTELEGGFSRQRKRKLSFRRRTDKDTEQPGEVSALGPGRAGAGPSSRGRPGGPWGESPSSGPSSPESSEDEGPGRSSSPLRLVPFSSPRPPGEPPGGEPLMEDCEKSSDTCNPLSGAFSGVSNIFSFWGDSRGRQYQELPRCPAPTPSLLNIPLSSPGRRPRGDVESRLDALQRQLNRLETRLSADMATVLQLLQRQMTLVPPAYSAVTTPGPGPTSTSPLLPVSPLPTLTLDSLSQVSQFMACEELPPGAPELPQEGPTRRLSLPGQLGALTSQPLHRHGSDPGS

NC(=O)Cn1cc(-c2cc(OCCC34CC5CC(CC(O)(C5)C3)C4)cc3c2-c2ccccc2[C@]3(O)C(F)(F)F)cn1 [Compound (A), 2-(4-{(9R)-9-Hydroxy-2-[2-(3-hydroxyadamantan-1-yl)ethoxy]-9-(trifluoromethyl)-9H-fluoren-4-yl}-1H-pyrazol-1-yl)acetamide] showed an IC50 at 10 min of over 10 µM.
